Measurements: US20200239530A1, “COMPOUNDS AND METHODS OF MODULATING PROTEIN DEGRADATION” (Vividion Therapeutics, Inc., priority 2017, published 2020)

Assays:
[1] = target: T1, FBXO11 F-box only protein 11 (Homo sapiens, UniProt Q86XK2); assay: Cysteine liganding, probe competition; assay type: binding
T1 construct: Cells were resuspended in cold PBS on ice and sonicated with a probe sonicator to achieve lysis; endogenous in cells
T1 sequence (Q86XK2 1-927): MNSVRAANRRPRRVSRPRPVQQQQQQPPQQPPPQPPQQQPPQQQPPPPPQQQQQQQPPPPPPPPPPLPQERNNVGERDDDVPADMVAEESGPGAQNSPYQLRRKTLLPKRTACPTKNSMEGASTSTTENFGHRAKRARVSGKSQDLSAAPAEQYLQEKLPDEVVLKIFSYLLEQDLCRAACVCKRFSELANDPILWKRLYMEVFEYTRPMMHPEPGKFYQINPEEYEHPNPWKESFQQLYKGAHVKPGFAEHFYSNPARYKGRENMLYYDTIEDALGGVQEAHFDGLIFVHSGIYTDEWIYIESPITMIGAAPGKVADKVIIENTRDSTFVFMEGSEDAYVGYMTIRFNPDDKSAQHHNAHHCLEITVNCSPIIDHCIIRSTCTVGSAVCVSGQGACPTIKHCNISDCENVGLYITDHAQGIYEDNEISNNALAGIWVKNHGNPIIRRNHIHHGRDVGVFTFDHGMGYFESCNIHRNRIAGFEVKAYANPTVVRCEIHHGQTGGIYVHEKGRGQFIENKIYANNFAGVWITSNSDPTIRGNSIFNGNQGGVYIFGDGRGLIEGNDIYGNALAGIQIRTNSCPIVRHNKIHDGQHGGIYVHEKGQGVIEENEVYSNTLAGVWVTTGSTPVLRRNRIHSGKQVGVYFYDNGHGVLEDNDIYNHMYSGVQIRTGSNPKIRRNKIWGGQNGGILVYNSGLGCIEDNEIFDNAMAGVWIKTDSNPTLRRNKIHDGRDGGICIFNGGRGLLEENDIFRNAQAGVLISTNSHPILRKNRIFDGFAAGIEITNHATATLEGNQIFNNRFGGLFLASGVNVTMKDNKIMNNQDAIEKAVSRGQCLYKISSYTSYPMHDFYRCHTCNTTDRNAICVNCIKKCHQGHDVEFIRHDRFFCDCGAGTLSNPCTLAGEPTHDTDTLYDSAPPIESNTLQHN
In short: (§1)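 Lysates from probe-sonicated cells in PBS (5 mg/ml proteome) were exposed to compound for 1 hr at 25° C, then labelled with desthiobiotin iodoacetamide probe (10 mM stock) for 1 hr at 25° C. Probe-tagged peptides were streptavidin-enriched after trypsin digestion.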

[2] = target: T2, KBTBD8 Kelch repeat and BTB domain-containing protein 8 (Homo sapiens, UniProt Q8NFY9); assay: Cysteine liganding, probe competition; assay type: binding; conditions: for 100 Max / 100 ave / 500 Max / 500 ave: uniprot Q8NFY9
T2 construct: Cells were resuspended in cold PBS on ice and sonicated with a probe sonicator to achieve lysis; endogenous in cells
T2 sequence (Q8NFY9 1-601): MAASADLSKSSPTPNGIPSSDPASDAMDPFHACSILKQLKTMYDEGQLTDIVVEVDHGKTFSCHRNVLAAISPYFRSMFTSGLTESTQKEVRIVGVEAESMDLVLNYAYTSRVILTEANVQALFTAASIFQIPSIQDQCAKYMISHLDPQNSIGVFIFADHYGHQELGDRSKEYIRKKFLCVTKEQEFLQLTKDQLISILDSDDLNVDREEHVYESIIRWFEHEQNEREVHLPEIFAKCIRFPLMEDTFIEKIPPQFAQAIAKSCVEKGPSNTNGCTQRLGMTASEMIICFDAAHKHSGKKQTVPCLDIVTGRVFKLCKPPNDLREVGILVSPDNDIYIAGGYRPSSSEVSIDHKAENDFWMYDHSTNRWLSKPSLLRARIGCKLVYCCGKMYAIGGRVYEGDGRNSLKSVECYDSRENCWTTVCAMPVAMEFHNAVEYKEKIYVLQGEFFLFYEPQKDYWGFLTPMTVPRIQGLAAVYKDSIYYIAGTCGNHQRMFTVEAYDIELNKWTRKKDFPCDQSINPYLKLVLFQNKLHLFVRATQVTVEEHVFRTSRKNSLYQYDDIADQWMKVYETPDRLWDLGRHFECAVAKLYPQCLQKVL
In short: as §1

Row | SMILES | Liganded ([1]; FBXO11 Res# 581, uniprot Q86XK2) | Liganded ([2]; KBTBD8 Res# 181, uniprot Q8NFY9) | 100 Max [2] | 100 ave [2] | 500 Max [2] | 500 ave [2] | 100 Max ([1]; uniprot Q86XK2) | 100 ave ([1]; uniprot Q86XK2) | 500 Max ([1]; uniprot Q86XK2) | 500 ave ([1]; uniprot Q86XK2)
1 | COc1ccc2c(c1)CCCN2C(=O)CCl [KB02] | YES | YES | 38.4 | 36.7 | 79.2 | 79.2 | – | – | – | –
2 | O=C(CCl)Nc1cc(C(F)(F)F)cc(C(F)(F)F)c1 [KBO3] | – | – | 5.3 | −7.4 | 21.5 | 21.5 | −13.9 | −20.1 | 28.6 | 20.3
